The record followed here is patent publication US20120045393A1 (priority 2009, published 2012).

Like-named read-outs stand apart in the source and are kept apart here. Non-standard residues stand in square brackets, D forms with d. Primed or numbered codes have the meaning given here. DO3A10CM(3) = metal chelator group attached at the N-terminus (X in table rows); DO3A10CM″ = chelating group at the N-terminus (X in the sequence tables); Bpa = N[C@@H](Cc1ccc(C(=O)c2ccccc2)cc1)C(=O)O; d2Nal = N[C@H](Cc1ccc2ccccc2c1)C(=O)O; DO3A10CM = not defined here; Tha = not defined here; azaGly = NNC(=O)O; Sar = CNCC(=O)O

Data set [1] is described as follows: liver homogenate. The following applies: female Tac:NCr:Foxn1^nu/nu mice, 37° C., up to 60 min.
Data set [2] deals with EFO-27 human ovarian cancer cells (LHRH binding sites). The experiment in a line: Saturation binding of radiolabeled LHRH-II analogs to EFO-27 cells. On the procedure: Saturation binding of ^125I-LHRH II and the ^177Lu-labeled LHRH II analog ^177Lu-BRU-2666 to EFO-27 cells was carried out to determine the binding affinity, binding capacity (Bmax) and receptor numbers. The data were analyzed for a single binding site using Prizm software.

The subject of data set [3] is EFO-27 cells. The experiment in a line: Internalization/efflux studies in EFO-27 cells. In kind it is cell-based, human. The following applies: for Cell associated activity at 0 h % Intern / Cell associated activity at 2 h % Intern: internalized; for Cell associated activity at 0 h % Memb / Cell associated activity at 2 h % Memb: membrane bound; for Bound %: of added; for Bound: per well. As to the method: (§1) Internalization/Efflux Studies: The internalization and efflux studies were carried out following the general procedure. Basically, ^177Lu-LHRH II or ^125I-LHRH II ([^125I-Tyr^8]BRU-2477) (75 uL, 3.0 μCi/mL) was added to the EFO-27 or PC-3 cells. The cells were incubated for 40 min at 37° C. The unbound radioactivity was washed off (4×). Following addition of fresh medium, the cells were further incubated for up to 2 h. At various time points (15, 30, 60 & 120 min) the distribution of radioactivity (membrane-bound, internalized, and efflux) was determined
The internalization and efflux of several Lu-177 labeled LHRH II analogs in EFO-27 cells have been investigated. Basically, following pre-incubation of cells with ^177Lu-LHRH II samples, the binding buffer containing the ^177Lu was replaced with fresh media without complex. The extent of initial internalization (T=0), the amount of radioactive material that remained internalized and the efflux at 0-120 min were determined. The results are shown in FIGS. 21a-f and 22a-c and in Table 25.

The subject of data set [4] is PC-3 (human prostate cancer) cells. Kind of data set: Internalization/efflux studies in PC-3 cells. The class given is cell-based. Also on record: Cell associated activity at 2 h % Efflux / Cell associated activity at 0 h % Memb / Cell associated activity at 2 h % Memb: concentration or dose not given beside the values. On the procedure:
as §1
To determine whether prostate cancer cells (PC-3) behave differently from EFO-27 cells, internalization and efflux studies were carried out with ^177Lu-BRU-2813 using both cell lines.

Data set [5] deals with LHRH binding sites on human ovarian cancer cells (EFO-27).
Data set [6] concerns the target T1, LHRH binding sites on EFO-27 human ovarian cancer cells (human).
T1 chain: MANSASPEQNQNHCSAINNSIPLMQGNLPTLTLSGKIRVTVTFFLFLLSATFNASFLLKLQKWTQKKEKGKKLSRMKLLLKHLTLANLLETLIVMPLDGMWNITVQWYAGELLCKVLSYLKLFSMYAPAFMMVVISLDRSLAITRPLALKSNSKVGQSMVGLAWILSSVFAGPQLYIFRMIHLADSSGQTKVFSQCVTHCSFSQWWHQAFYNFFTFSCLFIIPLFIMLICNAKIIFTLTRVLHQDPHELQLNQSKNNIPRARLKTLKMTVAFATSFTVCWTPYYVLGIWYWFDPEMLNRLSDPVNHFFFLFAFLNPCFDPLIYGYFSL
Kind of data set: competition with [125I-Tyr8]BRU-2477 on EFO-27 cells.

Data set [7] concerns the target T1, LHRH binding sites (presumed LHRH …). The data set is described as above.
The target is the same in data set [8]. Described as above.
The mark [9] stands for this setting: saturation binding, single binding site.
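Throughout, for more potency than the comparator analog: Cell-associated radioactivity on confluent EFO-27 monolayers in 96-well plates, measured by microplate scintillation counting.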

Turning to “DO3A10CM-Dnal2-Arg-Trp-Ser-His-Darg-Trp-Bpa4-Pip-azaGly-NH2”, in data set [1], the fragment found result is given as “Lu-DO3A10CM-Dnal2-Arg-Trp-Ser-His-Darg-Trp-Bpa4-Pip-OH”.
For the molecule “pGlu-His-Trp-Ser-His-Darg-Trp-Tyr-Ampc4-azaGly-NH2”, the not cleaved in data set [1] was 100 ± 0 % remaining after 60 min; no metabolism.
Consider “DO3A10CM-Dnal2-Arg-Trp-Ser-His-Darg-Trp-Bpa4-Flp4-azaGly-NH2”, for which the fragment found entry in data set [1] is given as “lutetium complex of BRU-3064 (DO3A10CM-Dnal2-Arg-Trp-Ser-His-Darg-Trp-Bpa-OH)”.
As for “DO3A10CM-Dnal2-Arg-Trp-Ser-His-Darg-Trp-Bpa4-Ψ(CH2N)Pro-azaGly-NH2”, in data set [1], the not cleaved is given as 100 ± 0 % remaining after 60 min; no metabolism was observed.
The same measure, in the same setting: the result for “DO3A10CM-Dnal2-Arg-Trp-Ser-His-Darg-Trp-Bpa4-Thz-azaGly-NH2” reads 98.5 ± 0.2 % remaining after 60 min; no metabolism was observed; that for “pGlu-His-Trp-Ser-His-Darg-Trp-Tyr-Ψ(CH2N)-Pro-azaGly-NH2”, 100 ± 0 % remaining after 60 min; no metabolism.
Turning to “DO3A10CM-Dnal2-Arg-Trp-Ser-His-Darg-Trp-Bpa4-Aze-azaGly-NH2”, the fragment found result in data set [1] was “lutetium complex of BRU-3064 (DO3A10CM-Dnal2-Arg-Trp-Ser-His-Darg-Trp-Bpa-OH)”.
Broadly, the Kd is the concentration at which binding is half-saturated. On to `N=C(N)NCCC[C@@H](NC(=O)[C@H](Cc1c[nH]cn1)NC(=O)[C@H](CO)NC(=O)[C@H](Cc1c[nH]c2ccccc12)NC(=O)[C@H](Cc1c[nH]cn1)NC(=O)[C@@H]1CCC(=O)N1)C(=O)N[C@@H](Cc1c[nH]c2ccccc12)C(=O)N[C@@H](Cc1ccc(O)c(I)c1)C(=O)N1CCC[C@H]1C(=O)NNC(N)=O` [125I-LHRH II, Darg^6,^125I-Tyr^8,azaGly^10-LHRH-II, reference compound], for which, in data set [2], the receptor numbers is 85×10^6 /cell. In addition, in data set [2] (setting [9]), the Kd was found to be 1290 nM, the “Max. binding (Bmax)” value is 141 pmoles/10^6 cells and the Receptors/cell is on record as 85 ×10^6. Besides, in data set [2] (single binding site), the Kd stood at 1290 nM and the “binding capacity (Bmax)” value came out at 141 pmoles/million cells. In addition, in data set [3], the “Cell associated activity at 0 h % Efflux” value is given as 19%, the “Cell associated activity at 0 h % Intern” value was 36.7%, the “Cell associated activity at 0 h % Memb” value was determined as 44.6% and the “Cell associated activity at 2 h % Efflux” value was determined as 87.1%. Also, in data set [3], the “Cell associated activity at 2 h % Intern” value came out at 4.9%, the “Cell associated activity at 2 h % Memb” value stood at 3.5%, the Bound % was determined as 1.20% and the Bound came out at 1.87 fmol. Besides, the initial internalization in data set [3] (% of total bound (cell-associated) radioactivity, T=0) came out at 35.6%.
In general, EC50 refers to the concentration at which the effect is half-maximal. Consider `N=C(N)NCCC[C@H](NC(=O)[C@@H](Cc1ccc2ccccc2c1)NC(=O)CN1CCN(CC(=O)O)CCN(CC(=O)O)CCN(CC(=O)O)CC1)C(=O)N[C@@H](Cc1c[nH]c2ccccc12)C(=O)N[C@@H](CO)C(=O)N[C@@H](Cc1cnc[nH]1)C(=O)N[C@H](CCCNC(=N)N)C(=O)N[C@@H](Cc1c[nH]c2ccccc12)C(=O)N[C@@H](Cc1ccc(C(=O)c2ccccc2)cc1)C(=O)N1CCC[C@H]1C(=O)NNC(N)=O` [BRU-2813, DO3A10CM-Dnal2-Arg-Trp-Ser-His-Darg-Trp-Bpa-Pro-azaGly-NH2], for which the “Cell associated activity at 0 h % Efflux” value was 8.8% in data set [3] and 12.5% in data set [4] (0 h). Moreover, the “Cell associated activity at 0 h % Intern” value in data set [3] came out at 24.1%; in data set [4] (0 h, internalized) it was 26.2%. The “Cell associated activity at 0 h % Memb” value worked out at 66.8% in data set [3] and 61.9% in data set [4] (0 h, membrane bound). In addition, the “Cell associated activity at 2 h % Efflux” value in data set [3] stood at 75.3%; in data set [4] (2 h), 75.7%. Further, the “Cell associated activity at 2 h % Intern” value in data set [3] came to 7.4%; in data set [4] (2 h, internalized), 7.5%. Moreover, the “Cell associated activity at 2 h % Memb” value in data set [3] stood at 17.3%; in data set [4] (2 h, membrane bound), 16.8%. The figures for the Bound % in data set [3] and in data set [4] (of added) were 19.10% and 19.26%, respectively. In addition, the Bound in data set [3] worked out at 40.5 fmol; in data set [4] (per well) it was 44.3 fmol. The “more potency than the comparator analog” value in data set [5] (BRU-2813 vs BRU-2666, BRU-2964 vs BRU-2813) was found to be 30%. Besides, the EC50 in data set [5] (EFO-27 cells, competition with [125I-Tyr8]BRU-2477, 90 min) came to 330 nM; in data set [5] (Table 19: analogs used in the stabilization studies) it was 420 nM.
In the case of “DO3A10CM-Dnal2-Arg-Trp-Ser-His-Darg-Trp-Bpa4-Ampt4-azaGly-NH2”, the not cleaved in data set [1] is reported as 98.7 ± 0.1 % remaining after 60 min; no metabolism was observed.
DO3A10CM-[d2Nal]RWWH[dR]W[Bpa]P[azaGly]-NH2 (reading uncertain, AA4 Trp) [BRU-3114]: the EC50 in data set [6] was determined as 11500 nM.
The molecule XFWSHXWXPX (DO3A10CM on N-terminus; AA1 Sar; AA6 Darg; AA8 Bpa4; AA10 azaGly-NH2, AA2 Phe) [BRU-2738] returned an EC50 in data set [7] of 1220 nM.
{DO3A10CM(3)}-[Sar]HWSY[dR]W[Bpa]P[azaGly]-NH2 (AA5 Tyr) [BRU-2668] showed an EC50 in data set [8] of 3470 nM.
In turn, {DO3A10CM″}-[Sar]WS[Tha][dR]W[Bpa]P[azaGly]-NH2 (reading uncertain) [BRU-2740] yielded an EC50 in data set [8] of 5530 nM.
DO3A10CM-[d2Nal]RWMH[dR]W[Bpa]P[azaGly]-NH2 (reading uncertain, AA4 Met) [BRU-2964]: the EC50 in data set [6] was determined as 220 nM.
Consider DO3A10CM-[Sar]YWSH[dR]W[Bpa]P[azaGly]-NH2 (reading uncertain, AA2 Tyr) [BRU-2814], for which, in data set [7], the EC50 was determined as 2240 nM.
Turning to GGHWSHXWXPX (DO3A10CM-Gly (linker) on N-terminus; AA6 Darg; AA8 Bpa4; AA10 azaGly-NH2, AA1 Gly) [BRU-2795], a half-maximal response in data set [7] (EC50) required 1370 nM.
For the molecule DO3A10CM-[d2Nal]RWSL[dR]W[Bpa]P[azaGly]-NH2 (reading uncertain, AA5 Leu) [BRU-3029], the EC50 in data set [8] was 1210 nM.
In data set [7], DO3A10CM-[Sar]KWSH[dR]W[Bpa]P[azaGly]-NH2 (reading uncertain, AA2 Lys) [BRU-2871] yielded an EC50 of 10000 nM.
Take FHWSHXWXPX (DO3A10CM on N-terminus; AA6 Darg; AA8 Bpa4; AA10 azaGly-NH2, AA1 Phe) [BRU-2735]: the midpoint of the response in data set [7], the EC50, lay at 1140 nM.
Same read-out and setting: the result for RRWSHXWXPX (DO3A10CM on N-terminus; AA6 Darg; AA8 Bpa4; AA10 azaGly-NH2, AA1 Arg, AA2 Arg) [BRU-3050] reads 310 nM.
On to DO3A10CM-[d2Nal]RWLH[dR]W[Bpa]P[azaGly]-NH2 (reading uncertain, AA4 Leu) [BRU-3113], for which, in data set [6], the EC50 was found to be 1130 nM.
The same measure, in the same setting: next, DO3A10CM-[d2Nal]RWDH[dR]W[Bpa]P[azaGly]-NH2 (reading uncertain, AA4 Asp) [BRU-2954]: 4200 nM.
Consider {DO3A10CM(3)}-GPHWSH[dR]W[Bpa]P[azaGly]-NH2 (AA1 Pro) [BRU-2667], for which, in data set [7], it took 7290 nM to reach a half-maximal effect (EC50).
The molecule XRWNHXWXPX (DO3A10CM on N-terminus; AA1 Dnal2; AA6 Darg; AA8 Bpa4; AA10 azaGly-NH2, AA4 Asn) [BRU-2956] gave an EC50 in data set [6] of 280 nM.
Regarding GHWSHXWXPX (DO3A10CM on N-terminus; AA6 Darg; AA8 Bpa4; AA10 azaGly-NH2, AA1 Gly) [BRU-2733], the EC50 in data set [7] came out at 1180 nM.
For DO3A10CM-[d2Nal]RWSA[dR]W[Bpa]P[azaGly]-NH2 (reading uncertain, AA5 Ala) [BRU-3028], the EC50 in data set [8] came out at 1090 nM.
In the case of {DO3A10CM(3)}-[Sar]HWSY[dR]L[Bpa]P[azaGly]-NH2 (AA5 Tyr, AA7 Leu) [BRU-2670], the response in data set [8] was half-maximal at 8840 nM (EC50).
